Drawing on the kinase profiling compilation of Christmann-Franck et al. (2016), this text covers kinase still bound, per cent of control for 2 compounds.

Assay in all cases: KINOMEscan competition binding
What all share (details): compound 10.0 µM

Experiment [1] has as its system FLT3 (human), P36888 [K663Q].
The subject of experiment [2] is PIK3CA (human), P42336 [H1047Y].
Experiment [3] has as its system PIK3CA (human), P42336 [Q546K].
The test system of experiment [4] is PIK3CA (human), P42336 [E545K].
Chain of PIK3CA (human), P42336 [E545K] (P42336 whole entry E545K, looked up): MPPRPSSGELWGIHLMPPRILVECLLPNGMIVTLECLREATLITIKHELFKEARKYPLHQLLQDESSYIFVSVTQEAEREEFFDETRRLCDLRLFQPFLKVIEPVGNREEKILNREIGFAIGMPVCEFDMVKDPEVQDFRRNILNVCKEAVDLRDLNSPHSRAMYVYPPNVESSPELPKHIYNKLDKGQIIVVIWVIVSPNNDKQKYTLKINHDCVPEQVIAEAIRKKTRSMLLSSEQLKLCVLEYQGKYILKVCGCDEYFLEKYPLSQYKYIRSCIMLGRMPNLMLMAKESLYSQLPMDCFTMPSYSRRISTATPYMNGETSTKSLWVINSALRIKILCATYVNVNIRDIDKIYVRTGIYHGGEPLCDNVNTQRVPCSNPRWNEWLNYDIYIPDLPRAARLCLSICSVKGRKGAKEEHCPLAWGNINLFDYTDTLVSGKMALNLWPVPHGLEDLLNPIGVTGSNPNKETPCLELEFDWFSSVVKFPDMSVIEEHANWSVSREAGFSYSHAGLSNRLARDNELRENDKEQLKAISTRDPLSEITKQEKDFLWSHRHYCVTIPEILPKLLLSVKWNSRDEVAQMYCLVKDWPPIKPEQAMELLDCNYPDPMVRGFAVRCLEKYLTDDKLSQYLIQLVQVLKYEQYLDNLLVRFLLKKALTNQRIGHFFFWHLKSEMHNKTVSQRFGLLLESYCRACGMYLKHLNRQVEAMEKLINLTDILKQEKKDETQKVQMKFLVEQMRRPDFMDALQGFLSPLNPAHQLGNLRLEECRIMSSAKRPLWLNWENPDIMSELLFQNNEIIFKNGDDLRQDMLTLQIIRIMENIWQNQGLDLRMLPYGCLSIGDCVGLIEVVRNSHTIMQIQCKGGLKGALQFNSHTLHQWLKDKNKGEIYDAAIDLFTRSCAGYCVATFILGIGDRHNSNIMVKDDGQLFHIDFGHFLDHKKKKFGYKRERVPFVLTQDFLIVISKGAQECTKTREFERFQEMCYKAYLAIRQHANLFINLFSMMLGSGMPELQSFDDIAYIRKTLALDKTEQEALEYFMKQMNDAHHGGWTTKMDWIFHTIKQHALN
The test system of experiment [5] is FLT3 (human), P36888 [ITD].
Experiment [6] concerns EIF2AK4 KD2 (human), Q9P2K8 [S808G].
Chain of EIF2AK4 KD2 (human), Q9P2K8 [S808G] (Q9P2K8 whole entry S808G, looked up): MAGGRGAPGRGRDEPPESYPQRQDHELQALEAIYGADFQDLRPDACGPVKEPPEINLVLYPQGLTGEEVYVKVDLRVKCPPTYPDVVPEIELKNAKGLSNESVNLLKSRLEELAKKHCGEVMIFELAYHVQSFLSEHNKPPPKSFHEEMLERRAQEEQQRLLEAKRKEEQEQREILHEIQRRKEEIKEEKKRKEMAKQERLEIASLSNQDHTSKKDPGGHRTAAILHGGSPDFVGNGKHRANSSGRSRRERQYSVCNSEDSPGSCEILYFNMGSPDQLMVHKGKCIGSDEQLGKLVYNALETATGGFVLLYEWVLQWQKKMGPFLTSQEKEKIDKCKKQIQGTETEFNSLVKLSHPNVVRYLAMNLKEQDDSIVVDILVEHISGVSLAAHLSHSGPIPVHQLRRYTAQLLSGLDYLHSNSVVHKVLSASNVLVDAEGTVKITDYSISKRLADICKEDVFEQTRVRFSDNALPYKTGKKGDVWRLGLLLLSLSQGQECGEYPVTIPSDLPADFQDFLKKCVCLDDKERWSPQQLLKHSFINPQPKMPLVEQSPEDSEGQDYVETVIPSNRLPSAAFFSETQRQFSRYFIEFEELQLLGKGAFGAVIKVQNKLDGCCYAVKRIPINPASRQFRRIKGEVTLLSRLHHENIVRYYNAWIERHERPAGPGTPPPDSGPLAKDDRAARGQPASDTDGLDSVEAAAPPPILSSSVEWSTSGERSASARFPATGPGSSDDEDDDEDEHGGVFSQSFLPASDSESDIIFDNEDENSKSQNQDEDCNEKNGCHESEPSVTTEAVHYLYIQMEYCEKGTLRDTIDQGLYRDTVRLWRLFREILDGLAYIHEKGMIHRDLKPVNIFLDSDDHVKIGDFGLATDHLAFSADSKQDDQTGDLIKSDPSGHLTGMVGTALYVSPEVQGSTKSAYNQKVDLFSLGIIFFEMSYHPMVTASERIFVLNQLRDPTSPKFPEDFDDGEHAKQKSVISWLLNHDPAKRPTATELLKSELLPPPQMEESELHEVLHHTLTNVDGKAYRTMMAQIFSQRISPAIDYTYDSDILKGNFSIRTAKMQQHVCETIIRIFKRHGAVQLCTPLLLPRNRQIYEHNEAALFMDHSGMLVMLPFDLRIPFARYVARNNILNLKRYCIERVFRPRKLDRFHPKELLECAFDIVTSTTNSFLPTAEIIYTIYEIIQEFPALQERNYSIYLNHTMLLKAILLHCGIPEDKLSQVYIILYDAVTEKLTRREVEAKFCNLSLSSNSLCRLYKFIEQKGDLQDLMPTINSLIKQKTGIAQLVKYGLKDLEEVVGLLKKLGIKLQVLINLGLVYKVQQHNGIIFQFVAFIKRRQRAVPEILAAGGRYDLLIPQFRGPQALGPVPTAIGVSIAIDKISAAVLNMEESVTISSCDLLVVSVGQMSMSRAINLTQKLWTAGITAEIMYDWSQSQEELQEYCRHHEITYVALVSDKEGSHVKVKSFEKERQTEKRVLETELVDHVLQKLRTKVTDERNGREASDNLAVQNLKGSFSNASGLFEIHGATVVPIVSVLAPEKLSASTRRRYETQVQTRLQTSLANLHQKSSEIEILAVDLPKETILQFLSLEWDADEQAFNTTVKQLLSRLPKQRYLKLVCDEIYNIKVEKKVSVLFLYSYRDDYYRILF
Experiment [7] has as its system PIK3CA (human), P42336 [E545A].
In experiment [8] the test system is KIT (human), P10721 [V559D/T670I].
Chain of KIT (human), P10721 [V559D/T670I] (P10721 whole entry V559D/T670I, looked up): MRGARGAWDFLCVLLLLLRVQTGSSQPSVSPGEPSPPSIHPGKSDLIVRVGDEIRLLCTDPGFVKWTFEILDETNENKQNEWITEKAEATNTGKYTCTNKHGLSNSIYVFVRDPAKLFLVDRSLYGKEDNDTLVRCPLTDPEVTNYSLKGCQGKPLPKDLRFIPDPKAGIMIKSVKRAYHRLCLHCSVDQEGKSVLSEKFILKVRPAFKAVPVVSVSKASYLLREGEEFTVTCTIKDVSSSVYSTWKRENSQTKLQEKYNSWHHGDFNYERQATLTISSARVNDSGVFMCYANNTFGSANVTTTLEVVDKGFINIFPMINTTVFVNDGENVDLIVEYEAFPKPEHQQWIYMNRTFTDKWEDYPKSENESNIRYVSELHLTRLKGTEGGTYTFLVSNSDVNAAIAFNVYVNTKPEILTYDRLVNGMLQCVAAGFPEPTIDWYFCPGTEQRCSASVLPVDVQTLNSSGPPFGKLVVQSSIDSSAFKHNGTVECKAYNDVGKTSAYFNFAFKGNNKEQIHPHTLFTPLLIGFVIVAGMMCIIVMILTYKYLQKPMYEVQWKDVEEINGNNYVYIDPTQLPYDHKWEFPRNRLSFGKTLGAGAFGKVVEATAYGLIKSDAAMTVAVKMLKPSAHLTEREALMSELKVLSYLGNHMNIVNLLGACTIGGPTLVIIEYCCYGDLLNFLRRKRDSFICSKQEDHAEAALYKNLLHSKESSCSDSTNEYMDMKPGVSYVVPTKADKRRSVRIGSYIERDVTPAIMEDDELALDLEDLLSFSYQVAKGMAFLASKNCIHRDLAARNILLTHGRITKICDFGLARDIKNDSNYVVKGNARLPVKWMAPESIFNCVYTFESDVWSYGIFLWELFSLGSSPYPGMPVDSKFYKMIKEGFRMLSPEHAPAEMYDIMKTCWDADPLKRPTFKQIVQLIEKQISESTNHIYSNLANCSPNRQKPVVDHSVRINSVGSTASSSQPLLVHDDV
In experiment [9] the test system is KIT (human), P10721 [V559D].
Chain of KIT (human), P10721 [V559D] (P10721 whole entry V559D, looked up): as the sequence (P10721 whole entry V559D/T670I, looked up) above, with I670T counted along it
Experiment [10] concerns PIK3CA (human), P42336 [C420R].
Chain of PIK3CA (human), P42336 [C420R] (P42336 whole entry C420R, looked up): as the sequence (P42336 whole entry E545K, looked up) above, with C420R, K545E counted along it
Experiment [11] concerns ABL1 (human), P00519 [T315I].
Experiment [12] concerns PIK3CA (human), P42336 [I800L].
Chain of PIK3CA (human), P42336 [I800L] (P42336 whole entry I800L, looked up): as the sequence (P42336 whole entry E545K, looked up) above, with K545E, I800L counted along it
The test system of experiment [13] is ABL1 (human), P00519 [M351T].
In experiment [14] the test system is KIT (human), P10721 [D816V].
Chain of KIT (human), P10721 [D816V] (P10721 whole entry D816V, looked up): as the sequence (P10721 whole entry V559D/T670I, looked up) above, with D559V, I670T, D816V counted along it
Experiment [15] deals with FLT3 (human), P36888 [N841I].
The test system of experiment [16] is ABL1 (human), P00519 [Q252H].
In experiment [17] the test system is EGFR (human), P00533 [P753S; 747-752 del].
Experiment [18] deals with ABL1 (human), P00519 [E255K].
Experiment [19] concerns EGFR (human), P00533 [L861Q].
In experiment [20] the test system is EGFR (human), P00533 [G719S].
Experiment [21] deals with EGFR (human), P00533 [746-750 del].

Chain of PIK3CA (human), P42336 [E545A] (P42336 whole entry E545A, looked up): as the sequence (P42336 whole entry E545K, looked up) above, with K545A counted along it
Chain of PIK3CA (human), P42336 [H1047Y] (P42336 whole entry H1047Y, looked up): as the sequence (P42336 whole entry E545K, looked up) above, with K545E, H1047Y counted along it
Chain of PIK3CA (human), P42336 [Q546K] (P42336 whole entry Q546K, looked up): as the sequence (P42336 whole entry E545K, looked up) above, with K545E, Q546K counted along it

With `CCN(CCO)CCCOc1ccc2c(Nc3cc(CC(=O)Nc4cccc(F)c4)[nH]n3)ncnc2c1`, the kinase still bound, per cent of control in experiment [1] was 1%; in experiment [2], 30%; in experiment [3], 15%; in experiment [4], 100%; in experiment [5], 2.5%; in experiment [6], 62%. Also, the kinase still bound, per cent of control in experiment [7] was found to be 31%; in experiment [8], 0%; in [9] it was 0%; in experiment [10], 72%; in experiment [11], 0.6%; in experiment [12], 100%. The kinase still bound, per cent of control was determined as 39% in experiment [13], 23% in experiment [14], 0.15% in [15] and 32% in experiment [16].
Consider `CCN(CC)CCCCNc1ncc2c(n1)N(C)C(=O)N(c1c(Cl)c(OC)cc(OC)c1Cl)C2`, for which the kinase still bound, per cent of control in [17], in [18], in experiment [1], in experiment [2], in experiment [3] and in [4] was 100% throughout. Also, the kinase still bound, per cent of control turned out to be 100% in [5]; 9.5% in experiment [6]; 100% in experiment [7]; 100% in experiment [8]; 6.1% in [9]; 100% in experiment [10]. The kinase still bound, per cent of control in experiment [11], in experiment [19], in experiment [13], in [14], in experiment [20] and in [21] was 100% in each case. Also, the kinase still bound, per cent of control in experiment [15] and in [16] was 100% each time.
